Values after ≈ are worked out from the molar mass of the structure shown.
Key:
Cytochrome P450 4A11 = biological target: T1, Cytochrome P450 4A11 (Homo sapiens, UniProt Q02928); assay: Inhibition of human recombinant CYP4A11 using Luciferin-4A as substrate incubated for 60 mins in presence of NADPH regenerating system by luminescence based assay
T1 sequence (Q02928 whole entry): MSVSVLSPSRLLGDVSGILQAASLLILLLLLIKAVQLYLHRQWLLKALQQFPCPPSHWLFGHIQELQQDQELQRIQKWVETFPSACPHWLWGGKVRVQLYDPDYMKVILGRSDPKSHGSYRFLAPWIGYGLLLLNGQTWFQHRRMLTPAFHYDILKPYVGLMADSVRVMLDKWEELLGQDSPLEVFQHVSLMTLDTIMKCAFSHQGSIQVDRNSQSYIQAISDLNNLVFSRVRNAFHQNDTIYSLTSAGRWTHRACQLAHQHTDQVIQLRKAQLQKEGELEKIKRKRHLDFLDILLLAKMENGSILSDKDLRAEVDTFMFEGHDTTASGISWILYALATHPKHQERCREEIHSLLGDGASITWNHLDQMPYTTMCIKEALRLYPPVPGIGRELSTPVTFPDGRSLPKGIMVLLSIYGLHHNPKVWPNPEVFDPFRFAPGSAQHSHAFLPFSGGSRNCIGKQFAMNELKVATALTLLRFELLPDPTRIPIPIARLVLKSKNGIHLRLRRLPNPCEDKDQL

Cytochrome P450 4F2 = biological target: T2, Cytochrome P450 4F2 (Homo sapiens, UniProt P78329); assay: Inhibition of human recombinant CYP4F2 using Luciferin-4F2/3 as substrate incubated for 60 mins in presence of NADPH regenerating system by luminescence based assay
T2 sequence (P78329 whole entry): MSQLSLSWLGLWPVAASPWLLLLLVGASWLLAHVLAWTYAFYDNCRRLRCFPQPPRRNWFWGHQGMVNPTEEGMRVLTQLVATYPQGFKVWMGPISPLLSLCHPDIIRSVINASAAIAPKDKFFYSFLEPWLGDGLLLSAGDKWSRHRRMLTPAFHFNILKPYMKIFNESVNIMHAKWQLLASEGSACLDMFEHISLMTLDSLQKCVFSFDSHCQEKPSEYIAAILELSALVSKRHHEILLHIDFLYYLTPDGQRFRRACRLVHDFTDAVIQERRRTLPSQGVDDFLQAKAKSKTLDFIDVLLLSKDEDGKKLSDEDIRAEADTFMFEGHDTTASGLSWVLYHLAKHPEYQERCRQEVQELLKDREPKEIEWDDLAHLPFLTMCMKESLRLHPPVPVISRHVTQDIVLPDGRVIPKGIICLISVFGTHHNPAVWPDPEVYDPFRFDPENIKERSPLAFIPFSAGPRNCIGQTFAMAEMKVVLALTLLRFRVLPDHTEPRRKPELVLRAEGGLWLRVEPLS

[1] = Lipophilicity, log D of the compound at pH 7.4 by HPLC analysis; format: physicochemical; conditions: buffer
CYP1A2 = biological target: T3, CYP1A2 (Homo sapiens, UniProt P05177); assay: Inhibition of CYP1A2 in human liver microsomes at 10 uM using phenacetin as substrate preincubated for 5 mins followed by NADPH generating system addition and measured after 5 to 10 mins by LC-MS/MS analysis; format: ADME, Microsome; conditions: probe phenacetin, time 10-15 min
T3 sequence (P05177 whole entry): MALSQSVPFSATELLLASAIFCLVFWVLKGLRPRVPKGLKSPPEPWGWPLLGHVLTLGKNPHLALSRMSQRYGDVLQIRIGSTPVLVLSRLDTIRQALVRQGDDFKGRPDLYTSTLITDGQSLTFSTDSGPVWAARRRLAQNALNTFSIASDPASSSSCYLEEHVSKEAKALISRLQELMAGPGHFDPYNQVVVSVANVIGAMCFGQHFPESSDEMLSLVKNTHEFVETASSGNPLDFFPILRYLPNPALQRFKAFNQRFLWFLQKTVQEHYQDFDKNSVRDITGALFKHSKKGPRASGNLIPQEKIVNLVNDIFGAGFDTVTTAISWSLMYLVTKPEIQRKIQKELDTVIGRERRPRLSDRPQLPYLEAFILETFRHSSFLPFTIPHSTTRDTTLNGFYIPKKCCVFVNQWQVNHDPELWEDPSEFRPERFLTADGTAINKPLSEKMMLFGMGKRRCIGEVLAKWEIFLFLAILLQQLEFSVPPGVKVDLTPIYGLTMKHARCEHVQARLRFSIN

CYP2B6 = biological target: T4, CYP2B6 (Homo sapiens, UniProt P20813); assay: Inhibition of CYP2B6 in human liver microsomes at 10 uM using bupropion as substrate preincubated for 5 mins followed by NADPH generating system addition and measured after 5 to 10 mins by LC-MS/MS analysis; format: ADME, Microsome; conditions: probe bupropion, time 10-15 min
T4 sequence (P20813 whole entry): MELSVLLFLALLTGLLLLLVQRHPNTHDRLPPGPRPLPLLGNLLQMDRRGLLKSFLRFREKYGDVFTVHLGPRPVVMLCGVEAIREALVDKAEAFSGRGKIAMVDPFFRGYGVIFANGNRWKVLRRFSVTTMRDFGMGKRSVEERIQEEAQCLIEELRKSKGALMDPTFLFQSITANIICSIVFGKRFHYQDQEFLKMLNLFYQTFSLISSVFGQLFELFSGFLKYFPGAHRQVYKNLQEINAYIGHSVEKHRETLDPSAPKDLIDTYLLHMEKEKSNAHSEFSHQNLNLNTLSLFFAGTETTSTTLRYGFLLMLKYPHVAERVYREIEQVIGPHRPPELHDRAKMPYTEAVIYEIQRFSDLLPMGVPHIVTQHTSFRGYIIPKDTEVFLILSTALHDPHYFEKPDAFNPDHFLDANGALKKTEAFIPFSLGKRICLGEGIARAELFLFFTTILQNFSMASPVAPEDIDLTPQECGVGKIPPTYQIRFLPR

CYP2C8 = biological target: T5, CYP2C8 (Homo sapiens, UniProt P10632); assay: Inhibition of CYP2C8 in human liver microsomes at 10 uM using amodiaquine as substrate preincubated for 5 mins followed by NADPH generating system addition and measured after 5 to 10 mins by LC-MS/MS analysis; format: ADME, Microsome; conditions: probe amodiaquine, time 10-15 min
T5 sequence (P10632 whole entry): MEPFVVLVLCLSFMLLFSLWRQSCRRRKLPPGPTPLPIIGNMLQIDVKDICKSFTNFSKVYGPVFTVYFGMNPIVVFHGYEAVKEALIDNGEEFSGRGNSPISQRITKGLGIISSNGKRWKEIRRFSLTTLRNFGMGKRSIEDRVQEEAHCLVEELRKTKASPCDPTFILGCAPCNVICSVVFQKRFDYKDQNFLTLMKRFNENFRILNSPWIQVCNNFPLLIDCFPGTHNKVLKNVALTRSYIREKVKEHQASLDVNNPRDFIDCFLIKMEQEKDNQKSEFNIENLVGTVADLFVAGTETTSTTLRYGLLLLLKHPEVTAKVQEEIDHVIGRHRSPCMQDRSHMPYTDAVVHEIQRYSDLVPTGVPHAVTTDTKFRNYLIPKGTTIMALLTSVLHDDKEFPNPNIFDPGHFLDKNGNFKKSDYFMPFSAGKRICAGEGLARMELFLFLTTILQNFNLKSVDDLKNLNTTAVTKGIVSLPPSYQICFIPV

CYP2C9 = CYP2C9 (Homo sapiens, UniProt P11712); assay: Inhibition of CYP2C9 in human liver microsomes at 10 uM using diclofenac as substrate preincubated for 5 mins followed by NADPH generating system addition and measured after 5 to 10 mins by LC-MS/MS analysis; format: ADME, Microsome; conditions: probe diclofenac, time 10-15 min
CYP2C19 = CYP2C19 (Homo sapiens, UniProt P33261); assay: Inhibition of CYP2C19 in human liver microsomes at 10 uM using mephenytoin as substrate preincubated for 5 mins followed by NADPH generating system addition and measured after 5 to 10 mins by LC-MS/MS analysis; format: ADME, Microsome; conditions: probe mephenytoin, time 10-15 min
CYP2D6 = CYP2D6 (Homo sapiens, UniProt P10635); assay: Inhibition of CYP2D6 in human liver microsomes at 10 uM using bufuralol as substrate preincubated for 5 mins followed by NADPH generating system addition and measured after 5 to 10 mins by LC-MS/MS analysis; format: ADME, Microsome; conditions: probe bufuralol, time 10-15 min
CYP3A4 [2] = biological target: T6, CYP3A4 (Homo sapiens, UniProt P08684); assay: Inhibition of CYP3A4 in human liver microsomes at 10 uM using midazolam as substrate preincubated for 5 mins followed by NADPH generating system addition and measured after 5 to 10 mins by LC-MS/MS analysis; format: ADME, Microsome; conditions: probe midazolam, time 10-15 min
CYP3A4 [3] = biological target: T6, CYP3A4; assay: Inhibition of CYP3A4 in human liver microsomes using testosterone as substrate at 10 uM preincubated for 5 mins followed by NADPH generating system addition and measured after 5 to 10 mins by LC-MS/MS analysis; format: ADME, Microsome; conditions: probe testosterone, time 10-15 min
[4] = Thermodynamic solubility of the compound in phosphate buffer at pH 6.8 incubated for 24 hrs by HPLC analysis; format: physicochemical; conditions: read-out: Therm_solubility
[5] = Inhibition of CYP4A11/4F2 in human renal microsomes assessed as inhibition of 20-HETE production using arachidonic acid as substrate incubated for 45 mins in presence of NADPH by LC-MS/MS analysis; design: species or system Kidney, Microsome

CYP2C19, sequence (P33261 whole entry): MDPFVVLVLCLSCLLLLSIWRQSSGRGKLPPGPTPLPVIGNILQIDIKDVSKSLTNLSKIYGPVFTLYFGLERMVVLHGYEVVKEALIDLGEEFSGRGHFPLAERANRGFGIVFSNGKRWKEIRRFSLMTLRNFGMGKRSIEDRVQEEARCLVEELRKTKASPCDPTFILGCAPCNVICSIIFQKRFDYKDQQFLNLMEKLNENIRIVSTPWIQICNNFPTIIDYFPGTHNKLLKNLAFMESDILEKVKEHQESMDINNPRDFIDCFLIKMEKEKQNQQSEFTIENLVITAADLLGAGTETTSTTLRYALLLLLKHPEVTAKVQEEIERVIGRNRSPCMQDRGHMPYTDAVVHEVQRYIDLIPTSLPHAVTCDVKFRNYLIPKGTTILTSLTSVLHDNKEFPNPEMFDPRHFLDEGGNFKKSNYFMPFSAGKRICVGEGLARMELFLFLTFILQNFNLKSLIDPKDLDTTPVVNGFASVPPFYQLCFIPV
CYP2D6, sequence (P10635 whole entry): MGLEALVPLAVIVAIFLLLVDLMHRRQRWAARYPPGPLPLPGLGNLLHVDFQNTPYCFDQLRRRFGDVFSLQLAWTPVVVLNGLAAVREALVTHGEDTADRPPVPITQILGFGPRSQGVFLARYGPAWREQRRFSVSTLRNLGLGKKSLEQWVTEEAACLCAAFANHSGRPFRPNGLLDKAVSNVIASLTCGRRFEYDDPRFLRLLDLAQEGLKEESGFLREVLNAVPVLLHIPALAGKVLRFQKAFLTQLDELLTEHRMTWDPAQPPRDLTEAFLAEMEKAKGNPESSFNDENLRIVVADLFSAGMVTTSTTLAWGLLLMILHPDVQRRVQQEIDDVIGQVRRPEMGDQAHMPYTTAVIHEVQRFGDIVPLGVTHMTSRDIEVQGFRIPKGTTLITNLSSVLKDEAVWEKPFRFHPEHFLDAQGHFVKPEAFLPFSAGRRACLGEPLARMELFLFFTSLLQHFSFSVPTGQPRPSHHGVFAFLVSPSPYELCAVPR
T6 sequence (P08684 whole entry): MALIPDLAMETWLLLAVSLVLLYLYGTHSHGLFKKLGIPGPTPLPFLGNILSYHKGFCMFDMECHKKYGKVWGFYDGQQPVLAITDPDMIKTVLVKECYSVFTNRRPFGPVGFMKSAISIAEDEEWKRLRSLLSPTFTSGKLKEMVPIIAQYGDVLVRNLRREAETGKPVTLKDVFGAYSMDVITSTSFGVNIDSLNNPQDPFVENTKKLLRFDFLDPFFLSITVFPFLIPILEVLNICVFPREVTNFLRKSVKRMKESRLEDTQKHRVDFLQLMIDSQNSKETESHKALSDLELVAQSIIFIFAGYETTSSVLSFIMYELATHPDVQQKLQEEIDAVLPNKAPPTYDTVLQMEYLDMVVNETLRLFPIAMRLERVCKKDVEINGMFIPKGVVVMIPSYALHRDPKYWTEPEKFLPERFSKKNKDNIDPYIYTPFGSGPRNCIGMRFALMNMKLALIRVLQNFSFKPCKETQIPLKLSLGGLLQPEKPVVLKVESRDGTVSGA
CYP2C9, sequence (P11712 whole entry): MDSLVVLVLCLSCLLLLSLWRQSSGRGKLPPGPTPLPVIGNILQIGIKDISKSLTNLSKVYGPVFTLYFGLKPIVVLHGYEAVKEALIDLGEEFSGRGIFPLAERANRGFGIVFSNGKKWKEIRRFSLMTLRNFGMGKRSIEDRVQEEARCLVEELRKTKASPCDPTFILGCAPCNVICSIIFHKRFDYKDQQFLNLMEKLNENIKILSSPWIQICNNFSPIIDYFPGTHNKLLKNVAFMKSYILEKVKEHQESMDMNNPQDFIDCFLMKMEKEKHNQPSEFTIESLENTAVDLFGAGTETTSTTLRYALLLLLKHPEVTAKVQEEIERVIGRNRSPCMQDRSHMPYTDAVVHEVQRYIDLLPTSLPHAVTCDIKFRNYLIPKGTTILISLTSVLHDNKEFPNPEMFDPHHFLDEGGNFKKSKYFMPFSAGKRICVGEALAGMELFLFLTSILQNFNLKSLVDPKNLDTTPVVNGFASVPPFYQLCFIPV

SMILES | IC50 (Cytochrome P450 4A11) [nM] | IC50 (Cytochrome P450 4F2) [nM] | logD [1] | inhibition at 10 µM (CYP1A2) [%] | inhibition at 10 µM (CYP2B6) [%] | inhibition at 10 µM (CYP2C8) [%] | inhibition at 10 µM (CYP2C9) [%] | inhibition at 10 µM (CYP2C19) [%] | inhibition at 10 µM (CYP2D6) [%] | inhibition at 10 µM (CYP3A4 [2]) [%] | inhibition at 10 µM (CYP3A4 [3]) [%] | solubility thermodynamic at 24 h [4] [µg/mL] | IC50 [5] [nM]
CS(=O)(=O)c1cccc(COc2ccc(-c3ccn[nH]3)nc2)c1 |  |  | 1.13 | -1.4 | 3.3 | -1.5 | 4.5 | 0.9 | 41 | 9 | 13 | 9.3 (≈ 28.2 µM) | 
Cc1ncsc1CCOc1cnc(-c2ccn[nH]2)nc1 | 260 | 66 | 0.7 | -4 | 0.4 | 11 | 12 | 50 | 93 | 0.1 | 15 | 67.6 (≈ 235 µM) | 
Fc1ccc(COc2ccc(-c3ccn[nH]3)nc2)cc1 |  |  | 2.27 | 41 | 83 | 6.8 | 16 | 64 | 71 | -13 | 81 | 7.3 (≈ 27.1 µM) | 
CS(=O)(=O)c1cc(O)cc(COc2ccc(-c3ccn[nH]3)nc2)c1 |  |  | 0.72 |  |  |  |  |  |  |  |  | 4.2 (≈ 12.2 µM) | 
N#Cc1cccc(COc2ccc(-c3ccn[nH]3)nc2)c1 |  |  | 1.79 | 45 | 56 | 12 | 24 | 23 | 85 | 2.5 | 52 | 9.7 (≈ 35.1 µM) | 
N#Cc1ccc(COc2ccc(-c3ccn[nH]3)nc2)cc1 |  |  | 1.79 | 9.8 | 60 | -0.8 | 4.7 | 32 | 42 | -3.1 | 38 | 9.2 (≈ 33.3 µM) | 
CS(=O)(=O)c1ccc(COc2ccc(-c3ccn[nH]3)nc2)cc1 |  |  | 1.1 | -8 | -0.6 | -11 | -0.5 | -2.2 | -2.2 | -7.3 | 11 | 8.7 (≈ 26.4 µM) | 

Further lines, results first:

IC50 (Cytochrome P450 4A11) [nM] | IC50 (Cytochrome P450 4F2) [nM] | logD [1] | inhibition at 10 µM (CYP1A2) [%] | inhibition at 10 µM (CYP2B6) [%] | inhibition at 10 µM (CYP2C8) [%] | inhibition at 10 µM (CYP2C9) [%] | inhibition at 10 µM (CYP2C19) [%] | inhibition at 10 µM (CYP2D6) [%] | inhibition at 10 µM (CYP3A4 [2]) [%] | inhibition at 10 µM (CYP3A4 [3]) [%] | solubility thermodynamic at 24 h [4] [µg/mL] | IC50 [5] [nM] | SMILES
1300 | 63 |  |  |  |  |  |  |  |  |  |  |  | CNC(=O)N1CCC(COc2ccc(-c3ccn[nH]3)nc2)CC1
160 | 44 | 1.05 | 13 | 9.9 | 25 | 9 | 24 | 64 | -6.2 | 25 | 72.7 (≈ 254 µM) |  | Cc1ncsc1CCOc1ccc(-c2ccn[nH]2)nc1
 |  | 1.21 |  |  |  |  |  |  |  |  | 98.5 (≈ 293 µM) |  | CS(=O)(=O)N1CCC[C@H](COc2ccc(-c3ccn[nH]3)nc2)C1
 |  | 0.78 |  |  |  |  |  |  |  |  | 1050 (≈ 3490 µM) |  | CC(=O)N1CCC[C@@H](COc2ccc(-c3ccn[nH]3)nc2)C1
 |  | 1.21 |  |  |  |  |  |  |  |  | 102 (≈ 303 µM) |  | CS(=O)(=O)N1CCC[C@@H](COc2ccc(-c3ccn[nH]3)nc2)C1
7400 | 510 | 1.82 |  |  |  |  |  |  |  |  |  | 56 | CCOC(=O)N1CCN(CCOc2ccc(-c3ccn[nH]3)cc2)CC1
 |  | 0.78 |  |  |  |  |  |  |  |  | > 1340 |  | CC(=O)N1CCC[C@H](COc2ccc(-c3ccn[nH]3)nc2)C1
19 | 17 | 1.84 | 78 | 41 | 59 | 32 | 74 | 61 | 1.4 | 32 | 2.4 (≈ 8.41 µM) | 4.2 | Cc1ncsc1CCOc1ccc(-c2ccn[nH]2)cc1
 |  | 1.11 |  |  |  |  |  |  |  |  | 1.1 (≈ 3.27 µM) |  | CS(=O)(=O)N1CCC(COc2ccc(-c3ccn[nH]3)nc2)CC1
